Here are results for 1 compound from US20220264878A1, “HERBICIDAL COMPOSITION CONTAINING R-TYPE PYRIDYLOXY CARBOXYLIC ACID DERIVATIVE AND USE THEREOF” (Qingdao Kingagroot Chemical Compound Co., Ltd., priority 2019, published 2022).

What all share (experiment): Post-emergence foliage spray, pot culture, fresh weight inhibition (Tables 1-48, 51-98, 101-148; 24 days)
Holding throughout (assay type): in vivo

One assay concerns Stellaria media. The following applies: Table 105. In outline: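 Pot-grown weeds were thinned to 15 per pot (45 per treatment) and sprayed on foliage at the 5–6-leaf stage for grasses or the 6–7-leaf stage for broadleaves. Agents were dissolved in acetone with 0.1% Tween-80 and applied at 450 kg/ha spray volume and 0.3 MPa. Plants were then kept in a greenhouse. Above-ground fresh weight of survivors, with dead plants counted as zero, gave inhibition versus a solvent/emulsifier blank.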

Another assay relates to Acalypha australis. An outline of the steps: (§1)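 Greenhouse pot plants (20–30 °C, natural light, 57–72% RH) were sprayed once on foliage at 450 kg/ha and 0.3 MPa, at the 5–6-leaf (grass) or 6–7-leaf (broadleaf) stage. Compounds were in acetone diluted with 0.1% Tween-80 water. Surviving shoots were weighed at 24 days; dead plants counted as zero.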
For a further assay, the system named is Ammannia arenaria. The following applies: Table 103. An outline of the steps: as §1
In the next assay the test system is Beckmannia syzigachne. In outline:
as §1

The test system of another assay is Chloris virgata. In outline: as §1
The subject of a further assay is Cirsium setosum. Particulars: Table 111. In outline:
as §1

Another assay relates to Setaria faberi. An outline of the steps:
as §1

The test system of a further assay is Sinapis arvensis. In outline: as §1
For a further assay, the system named is Solanum nigrum. An outline of the steps:
as §1

A further assay relates to Sonchus oleraceus L. An outline of the steps: as §1
Another assay relates to Xanthium strumarium. In outline: as §1

Turning to `C[C@@H](Oc1nc(F)c(Cl)c(N)c1Cl)C(=O)[O-].[Na+]` [Compound A3, A1 sodium salt], the “Control effect (%) of A applied alone in corresponding dose” value (“Control effect (%) of A applied alone” below) is listed as 34.1% with Stellaria media (7.5 g a.i./ha); 67.9% with Stellaria media (15 g a.i./ha); 20.7% in the assay with Acalypha australis (A 75 g a.i./ha); 51.6% in the assay on Acalypha australis (A 150 g a.i./ha); 30.4% in the assay on Ammannia arenaria (75 g a.i./ha); 66.2% in the assay on Ammannia arenaria (150 g a.i./ha). Also, the “Control effect (%) of A applied alone” value in the assay on Beckmannia syzigachne (A 75 g a.i./ha) amounted to 23.0%; in the assay with Beckmannia syzigachne (A 150 g a.i./ha) it was 42.8%; in the assay with Chloris virgata (A 75 g a.i./ha), 22.0%; with Chloris virgata (A 150 g a.i./ha) it was 48.3%; in the assay with Cirsium setosum (30 g a.i./ha), 31.5%; in the assay on Cirsium setosum (60 g a.i./ha) it was 64.3%. In addition, the “Control effect (%) of A applied alone” value is 32.5% in the assay on Setaria faberi (A 30 g a.i./ha); 55.4% in the assay with Setaria faberi (A 60 g a.i./ha); 33.2% in the assay with Sinapis arvensis (A 15 g a.i./ha); 72.7% in the assay with Sinapis arvensis (A 30 g a.i./ha); 16.9% with Solanum nigrum (A 75 g a.i./ha); 37.5% in the assay with Solanum nigrum (A 150 g a.i./ha). Moreover, the “Control effect (%) of A applied alone” value in the assay with Sonchus oleraceus L. (A 75 g a.i./ha) was found to be 33.8%; with Sonchus oleraceus L. (A 150 g a.i./ha) it was 55.5%; in the assay with Xanthium strumarium (A 7.5 g a.i./ha), 40.8%; in the assay on Xanthium strumarium (A 15 g a.i./ha) it was 77.2%.
